Experiments:
Experiment in all cases: relative viability (nuclei count vs DMSO), 5 days (fraction); higher = more cells survive
Alpelisib + AZD7762 = compound: Cc1nc(NC(=O)N2CCC[C@H]2C(N)=O)sc1-c1ccnc(C(C)(C)C(F)(F)F)c1 [Alpelisib] + NC(=O)Nc1cc(-c2cccc(F)c2)sc1C(=O)N[C@H]1CCCNC1 [AZD7762] (partner 0.2 µM)
Summary of the method: (§1)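 Lung cancer cell lines in 1536-well plates were dosed by pin tool the day after seeding, either with one drug alone or with a fixed anchor-drug dose plus five library-drug doses (not always all listed) in √10 steps. After 5 days, cells were fixed and their nuclei stained in one step (final 0.05% Triton X-100, 1% formaldehyde, 1 ug/ml Hoechst), then counted on 4× images. Relative viability is the nuclei count in treated wells divided by that in vehicle wells. Values are medians of duplicate plates.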

Vemurafenib + Trametinib = compound: CCCS(=O)(=O)Nc1ccc(F)c(C(=O)c2c[nH]c3ncc(-c4ccc(Cl)cc4)cc23)c1F [Vemurafenib] + CC(=O)Nc1cccc(-n2c(=O)n(C3CC3)c(=O)c3c(Nc4ccc(I)cc4F)n(C)c(=O)c(C)c32)c1 [Trametinib] (partner 0.02 µM)
Summary of the method: as §1

Vemurafenib + Vorinostat = compound: CCCS(=O)(=O)Nc1ccc(F)c(C(=O)c2c[nH]c3ncc(-c4ccc(Cl)cc4)cc23)c1F [Vemurafenib] + O=C(CCCCCCC(=O)Nc1ccccc1)NO [Vorinostat] (partner 1 µM)
Summary of the method: as §1

OSI-027 + Tozasertib = compound: COc1cccc2cc(-c3nc([C@H]4CC[C@H](C(=O)O)CC4)n4ncnc(N)c34)[nH]c12 [OSI-027] + Cc1cc(Nc2cc(N3CCN(C)CC3)nc(Sc3ccc(NC(=O)C4CC4)cc3)n2)n[nH]1 [Tozasertib] (partner 0.1 µM)
Summary of the method: as §1

Row | Cell Line | relative viability (Alpelisib + AZD7762; first compound 0.04 µM) | relative viability (Alpelisib + AZD7762; first compound 0.1265 µM) | relative viability (Alpelisib + AZD7762; first compound 0.4 µM) | relative viability (Alpelisib + AZD7762; first compound 1.265 µM) | relative viability (Alpelisib + AZD7762; first compound 4 µM) | relative viability (Vemurafenib + Trametinib; first compound 0.03162 µM) | relative viability (Vemurafenib + Trametinib; first compound 0.1 µM) | relative viability (Vemurafenib + Trametinib; first compound 0.3162 µM) | relative viability (Vemurafenib + Trametinib; first compound 1 µM) | relative viability (Vemurafenib + Vorinostat; first compound 0.03162 µM) | relative viability (Vemurafenib + Vorinostat; first compound 0.1 µM) | relative viability (Vemurafenib + Vorinostat; first compound 0.3162 µM) | relative viability (Vemurafenib + Vorinostat; first compound 1 µM) | relative viability (OSI-027 + Tozasertib; first compound 0.01 µM) | relative viability (OSI-027 + Tozasertib; first compound 0.03162 µM) | relative viability (OSI-027 + Tozasertib; first compound 0.1 µM) | relative viability (OSI-027 + Tozasertib; first compound 0.3162 µM) | relative viability (OSI-027 + Tozasertib; first compound 1 µM)
1 | 201T | 0.616 | 0.636 | 0.546 | 0.477 | 0.469 | 0.702 | 0.681 | 0.752 | 0.779 | 0.944 | 0.845 | 0.944 | 0.986 | 1 | 0.96 | 0.946 | 0.914 | 0.736
2 | A-427 | 0.712 | 0.649 | 0.72 | 0.574 | 0.617 | 0.711 | 0.702 |  | 0.763 | 0.807 | 0.819 |  | 0.875 | 0.231 | 0.201 | 0.159 | 0.219 | 0.192
3 | ABC-1 | 0.996 | 0.875 | 1.2 | 0.598 | 0.69 |  |  |  |  | 1.06 | 0.972 | 0.831 | 1.45 | 0.197 | 0.179 | 0.203 | 0.167 | 0.206
4 | BEN | 0.67 | 0.59 | 0.756 | 0.825 | 0.549 | 0.935 | 1.01 | 0.638 | 0.811 | 0.494 | 0.592 | 0.402 | 0.503 | 0.566 | 0.625 | 0.469 | 0.529 | 0.383
5 | CAL-12T | 0.7 | 0.593 | 0.754 | 0.566 | 0.643 | 0.28 | 0.289 | 0.438 | 0.442 | 0.673 | 0.698 | 1.04 | 0.875 | 0.377 | 0.287 | 0.317 | 0.294 | 0.212
6 | COR-L23 |  |  |  |  |  | 0.619 | 0.58 | 0.433 | 0.691 | 0.443 | 0.412 | 0.373 | 0.441 | 0.18 | 0.185 | 0.237 | 0.287 | 0.19
7 | COR-L 105 |  |  |  |  |  | 0.418 |  | 0.428 | 0.655 | 0.838 |  | 0.903 | 0.815 | 0.335 | 0.336 | 0.374 | 0.371 | 0.411
8 | ChaGo-K-1 | 0.865 | 0.909 | 0.875 | 0.791 | 0.672 | 0.834 | 0.875 | 0.868 | 0.898 | 0.743 | 0.762 | 0.605 | 0.762 | 0.208 | 0.222 | 0.203 | 0.382 | 0.172
9 | EKVX | 0.868 | 0.662 | 0.675 | 0.636 | 0.533 | 0.316 |  | 0.406 | 0.476 | 0.712 |  | 0.745 | 0.936 | 0.299 | 0.358 | 0.406 | 0.349 | 0.269
10 | EMC-BAC-2 | 1.1 | 1.05 | 0.946 | 0.832 | 0.581 | 0.806 | 0.907 |  | 1.08 | 0.361 | 0.411 |  | 0.415 | 0.281 | 0.284 | 0.254 | 0.287 | 0.24
11 | EPLC-272H | 0.237 | 0.251 | 0.24 | 0.271 | 0.186 | 0.282 | 0.323 | 0.338 | 0.331 | 0.553 | 0.4 | 0.528 | 0.543 | 0.139 | 0.277 | 1.01 | 0.162 | 0.143
12 | H3255 | 0.86 | 0.88 | 1.32 | 0.799 | 0.864 | 0.589 |  | 0.652 | 0.645 | 0.758 |  | 0.709 | 0.638 | 0.749 | 0.62 | 0.604 | 0.555 | 0.436
13 | HARA | 0.364 | 0.334 | 0.398 | 0.249 | 0.442 | 0.742 | 0.325 | 0.71 | 0.757 | 0.424 | 0.517 | 0.399 | 0.54 | 0.472 | 0.099 | 0.115 | 0.0843 | 0.106
14 | HCC-15 | 1.23 | 1.35 | 1.32 | 1.05 | 0.908 | 0.373 | 0.363 | 0.43 | 0.429 | 0.775 | 0.8 | 0.899 | 0.805 | 0.458 | 0.4 | 0.429 | 0.414 | 0.266
15 | HCC-44 | 1 | 1.02 | 1.02 | 1.03 | 1.07 | 1.01 | 1 | 1.02 | 1.14 | 1.09 | 1.01 | 1.09 | 1.16 | 0.945 | 0.859 | 1.05 | 0.84 | 0.685
16 | HCC-78 | 0.726 | 0.515 | 0.293 | 0.362 | 0.377 | 0.783 | 0.609 | 1.06 | 0.838 | 0.425 | 0.351 | 0.79 | 0.4 | 0.506 | 0.374 | 0.435 | 0.334 | 0.241
17 | HCC-366 | 0.317 | 0.316 | 0.307 | 0.183 | 0.072 | 0.346 | 0.193 |  | 0.376 | 0.271 | 0.38 |  | 0.306 | 0.13 | 0.113 | 0.0867 | 0.128 | 0.0744
18 | HCC-827 | 0.253 | 0.212 | 0.209 | 0.199 | 0.168 | 0.52 |  | 0.73 | 0.585 | 0.796 |  | 0.663 | 0.816 | 0.447 | 0.478 | 0.456 | 0.343 | 0.363
19 | HOP-62 | 0.607 | 0.386 | 1.21 | 0.651 | 0.614 | 0.419 | 0.36 | 0.416 | 0.594 | 0.515 | 0.593 | 0.583 | 0.484 | 0.382 | 0.39 | 0.369 | 0.442 | 0.277
